From patent US12318390B2, “Pharmaceutical composition for oral administration comprising aminopyrimidine derivative or its salt” (YUHAN CORPORATION, priority 2018, dated 2025)
In brackets after ≈: the same amount, converted by molar mass.

Legend:
[1] = Comparative pharmacokinetic test in esomeprazole-treated rats; assay type: in vivo, rats (SD rat); settings: for area under the blood concentration curve reduced compared with the normal rats / maximum blood concentration reduced compared with the normal rats: esomeprazole-treated rats vs normal rats
Excerpt: (§1) Specifically, in the normal rats and the esomeprazole-treated rats, maximum blood concentrations (Cmax) and areas under the blood concentration curve (AUClast) were compared with each other, respectively, to evaluate the absorption of drugs in animals.
The results (the maximum blood concentration and the area under the blood concentration curve) of the comparative pharmacokinetic test obtained therefrom were shown in Table 7 and FIGS. 5 and 6.

[2] = Comparative pharmacokinetic test in normal rats; assay type: in vivo, rats (SD rat)
Excerpt: as §1

Solubility test = assay type: physicochemical; settings: thermodynamic from solid, 37° C.
Experimental: In addition, 100 mg of Lazertinib free-base (prepared in the same manner as the method described in WO 2016/060443) was tested under the same conditions.

[3] = Pharmacokinetic test for Lazertinib mesylate and free-base in beagle dogs; assay type: in vivo; settings: beagle dog
Excerpt: The results (the maximum blood concentration and the area under the blood concentration curve) of the comparative pharmacokinetic test obtained therefrom were shown in Table 8 and FIG. 7.

[4] = Stability test under stressed condition; assay type: physicochemical; settings: for PXRD pattern: stressed condition 60 ± 2° C., 75 ± 5% RH; for Purity: HPLC
[5] = Stability test under accelerated condition; assay type: physicochemical; settings: for Purity: HPLC
[6] = esomeprazole-treated rats, oral 30 mg/kg
[7] = stressed condition, Start to 4 weeks
[8] = Esomeprazole-treated rat (5 mg/kg i.v. for 3 days), oral 30 mg/5 mL/kg
[9] = Normal rat, oral 30 mg/5 mL/kg in 0.5% methyl cellulose
[10] = accelerated condition, 3 months
[11] = accelerated condition, 6 months
[12] = accelerated condition, Start to 6 months
[13] = oral 5 mg/2 mL/kg in 0.5% methyl cellulose

## C=CC(=O)Nc1cc(Nc2nccc(-n3cc(CN(C)C)c(-c4ccccc4)n3)n2)c(OC)cc1N1CCOCC1 [Lazertinib free-base, N-(5-(4-(4-((dimethylamino)methyl)-3-phenyl-1H-pyrazol-1-yl)pirimidine-2-ylamino)-4-methoxy-2-morpholinophenyl)acrylamide]
[1]
  area under the blood concentration curve reduced compared with the normal rats: 63.8%
  maximum blood concentration reduced compared with the normal rats: 69.3%
[1]; [6]
  area under the blood concentration curve lower than Lazertinib mesylate: 49.4%
  maximum blood concentration lower than Lazertinib mesylate: 47.8%
[1]; male, SD, blood, Esomeprazole-treated rat (i.v. for 3 days), oral 30 mg/5 mL/kg, read-out: Area under the blood concentration curve (AUClast)
  AUC(0-t): 2640 ng·h/mL
[1]; male, SD, blood, Esomeprazole-treated rat (i.v. for 3 days), oral 30 mg/5 mL/kg, read-out: Maximum blood concentration (Cmax)
  Cmax: 223 ng/mL
[2]; male, SD, blood, 30 mg/kg, Normal rat, oral 30 mg/5 mL/kg in 0.5% methyl cellulose, read-out: Area under the blood concentration curve (AUClast)
  AUC(0-t): 7290 ng·h/mL
[2]; male, SD, blood, 30 mg/kg, Normal rat, oral 30 mg/5 mL/kg in 0.5% methyl cellulose, read-out: Maximum blood concentration (Cmax)
  Cmax: 726 ng/mL
[2]; normal rats, oral 30 mg/kg
  area under the blood concentration curve lower than Lazertinib mesylate: 10.4%
  maximum blood concentration lower than Lazertinib mesylate: 11.0%
Solubility test; fassgf or other biorelevant, Artificial gastric juice (FaSSGF)
  solubility at 12 h: 1500 µg/mL (≈ 2700 µM)
Solubility test; organic solvent or mixture, Ethanol
  solubility at 12 h: 599 µg/mL (≈ 1080 µM)
Solubility test; pH 1.2 buffer solution, simulated gastric fluid, pH 1.2 buffer
  solubility at 12 h: 4400 µg/mL (≈ 7930 µM)
Solubility test; pH 2.0 buffer solution, simulated gastric fluid, pH 2.0 buffer
  solubility at 12 h: 3700 µg/mL (≈ 6670 µM)
Solubility test; pH 3.0 buffer solution, aqueous buffer, pH 3.0 buffer
  solubility at 12 h: 1900 µg/mL (≈ 3430 µM)
Solubility test; pH 4.0 buffer solution, aqueous buffer, pH 4.0 buffer
  solubility at 12 h: 1000 µg/mL (≈ 1800 µM)
Solubility test; pH 5.0 buffer solution, aqueous buffer, pH 5.0 buffer
  solubility at 12 h: 10 µg/mL (≈ 18 µM)
Solubility test; pH 6.0 buffer solution, aqueous buffer, pH 6.0 buffer
  solubility at 12 h: 3 µg/mL (≈ 5.41 µM)
Solubility test; pH 7.0 buffer solution, aqueous buffer, pH 7.0 buffer
  solubility at 12 h: 1 µg/mL (≈ 1.8 µM)
Solubility test; Artificial intestinal fluid (FaSSIF)
  solubility at 12 h: 27 µg/mL (≈ 48.7 µM)
Solubility test; water
  solubility at 12 h: 1 µg/mL (≈ 1.8 µM)
[3]; oral 5 mg/kg
  area under the blood concentration curve lower than Lazertinib mesylate: 50.4%
  maximum blood concentration lower than Lazertinib mesylate: 40.1%
[3]; male, blood, 5 mg/kg, oral 5 mg/2 mL/kg in 0.5% methyl cellulose, read-out: Area under the blood concentration curve (AUClast)
  AUC(0-t): 379 ng·h/mL
[3]; male, blood, 5 mg/kg, oral 5 mg/2 mL/kg in 0.5% methyl cellulose, read-out: Maximum blood concentration (Cmax)
  Cmax: 80.7 ng/mL

## mesylic acid salt of N-(5-(4-(4-((dimethylamino)methyl)-3-phenyl-1H-pyrazol-1-yl)pirimidine-2-ylamino)-4-methoxy-2-morpholinophenyl)acrylamide [Lazertinib mesylate]
[4]; 2 weeks
  PXRD pattern: Same
[4]; 4 weeks
  PXRD pattern: Same
[4]; stressed condition, 2 weeks
  Appearance (color): White
  Content: 97.7%
  DSC Onset: 214 °C
  Water Content: 2.71%
  Purity: 99.3%
[4]; stressed condition, 4 weeks
  Appearance (color): White
  Content: 98.9%
  DSC Onset: 214 °C
  Water Content: 2.70%
  Purity: 99.3%
[4]; stressed condition, Start
  Appearance (color): White
  Content: 98.8%
  DSC Onset: 214 °C
  Water Content: 2.48%
  Purity: 99.2%
[4]; [7]
  Content Variation: +0.1%
  Purity Variation: +0.1%
  Water Content Variation: +0.22%
[1]; [8]
  Area under the blood concentration curve (AUClast): 5210.9 ng·h/mL
  Maximum blood concentration (Cmax): 427.5 ng/mL
[1]
  area under the blood concentration curve reduced compared with the normal rats: 36.0%
  maximum blood concentration reduced compared with the normal rats: 47.6%
[2]; [9]
  Area under the blood concentration curve (AUClast): 8139.0 ng·h/mL
  Maximum blood concentration (Cmax): 815.6 ng/mL
[5]; accelerated condition 40 ± 2° C., 75 ± 5% RH, 1 month
  PXRD pattern: Same
[5]; accelerated condition, 1 month
  Appearance (color): White
  Content: 98.9%
  DSC Onset: 214 °C
  Water Content: 2.73%
  Purity: 99.3%
[5]; [10]
  Appearance (color): White
  Content: 98.9%
  DSC Onset: 214 °C
  PXRD pattern: Same
  Water Content: 3.19%
  Purity: 99.3%
[5]; [11]
  Appearance (color): White
  Content: 99.1%
  DSC Onset: 214 °C
  PXRD pattern: Same
  Water Content: 3.01%
  Purity: 99.3%
[5]; accelerated condition, Start
  Appearance (color): White
  Content: 98.8%
  DSC Onset: 214 °C
  Water Content: 2.48%
  Purity: 99.2%
[5]; [12]
  Content Variation: +0.3%
  Purity Variation: +0.1%
  Water Content Variation: +0.53%
[3]; [13]
  Area under the blood concentration curve (AUClast): 811.5 ng·h/mL
  Maximum blood concentration (Cmax): 134.7 ng/mL
